Assay results taken from patent EP1095657A2, “Compositions for the regulation of cytokine activity” (priority 1992, dated 1994).
Where two headings read alike, the source gives them in different places.

Experiments:
LPS-induced uveitis = details: for Median Protein: LPS with saline 18.4, no LPS 0.36
ELAM-1 = test: TNF-α-induced expression of adhesion molecules by endothelial cells (ELISA); details: for Recombinant human TNFα-induced adhesion molecules (O.D 492): 1 h pretreatment of EC, TNFα alone 1.2±0.1
ICAM-1 = test: as above; details: 1 h pretreatment of EC, TNFα alone 2.2±0.2

Question: With `O=C(O)C1=C[C@H](O)[C@@H](OS(=O)(=O)O)[C@H](O[C@H]2[C@H](O)[C@@H](NS(=O)(=O)O)C(O)O[C@@H]2CO)O1` (stereo partly drawn) [H-9392, 2-O-sulfate-4-deoxy-4-en-iduronic acid-(α-1,4)-2-deoxy-2-N-sulfateglucosamine] as the compound, how does the “Median Protein” value (LPS-induced uveitis; 32 ng/rat at Day 1) read?
Answer: 5.2 mg/mL

Question: And the “Median Protein” value (LPS-induced uveitis; 500 ng/rat at Day 1)?
Answer: 4.8 mg/mL

Question: And the “suppression of the inflammation relative to control” value (LPS-induced uveitis; single administration, at either dosage)?
Answer: over 70%

Question: What about the “Recombinant human TNFα-induced adhesion molecules (O.D 492)” value (ELAM-1; 50 pg/ml, no TNFα 0.12±0.01) of the same compound?
Answer: 0.6±0.1 O.D 492

Question: What about the “Recombinant human TNFα-induced adhesion molecules (O.D 492)” value (ELAM-1; 100 pg/ml) of the same compound?
Answer: 0.9±0.07 O.D 492

Question: And the “inhibition of the up regulation of EC expression of adhesion molecules induced by TNF-α” value (ELAM-1; ELAM-1 and ICAM-1 not told apart in the sentence)?
Answer: up to 50%

Question: What about the “Recombinant human TNFα-induced adhesion molecules (O.D 492)” value (ICAM-1; 50 pg/ml, no TNFα 0.18±0.01) of the same compound?
Answer: 1.0±0.04 O.D 492

Question: What about the “Recombinant human TNFα-induced adhesion molecules (O.D 492)” value (ICAM-1; 100 pg/ml) of the same compound?
Answer: 1.4±0.03 O.D 492
